Source: publication PMC12019328, “Discovery of an ApoE4-targeted small-molecule SirT1 enhancer for the treatment of Alzheimer’s disease” (Scientific Reports, 2025)

Assays:
[1] = test system: SirT1 protein in N2a-E4 cells; assay: SirT1 protein levels in N2a-E4 cells (AlphaLISA); type: cell-based, murine
Protocol: Relative SirT1 mRNA and protein enhancement by racemate DDL-214 and enantiomers DDL-218 and − 219 was determined in murine neuroblastoma cells stably transfected with ApoE4 (N2a-E4)[25]. All test compounds in DMSO were prepared at 2x the final concentration in DMEM supplemented with 10% fetal bovine serum (FBS) and 1% pen-strep (PS) and 50 µL of each loaded into individual wells of a 96-well plate. Previously cultured N2a-E4 were then trypsinized, harvested, centrifuged, and counted; then 50 µL of cell suspension adjusted to 400 cells/µL was added to each well. The plate was then incubated at 37 °C, 5% CO2 for 48 h. Cells were treated with DDL-214, DDL-218, or DDL-219 at 5 µM final then incubated for 24 h. After incubation, the cells were lysed with 50 µL of ice-cold lysis buffer (0.4% SDS, 3.5% Triton X-100, 0.02% sodium deoxycholate, 28 mM TRIS pH 8) complemented with 1X final Halt™ Protease and Phosphatase Inhibitor Cocktail (Thermo Fisher catalog # 78442), placed on ice for 10 min and at -80 °C, followed by 3 freeze/thaw cycles.
An AlphaLISA comprising streptavidin donor beads (Revvity catalog # 6760002 S), biotinylated anti-SirT1 N-terminal antibody (monoclonal 19A7AB4, Abcam catalog # ab110304), and acceptor beads (Revvity catalog # 6772001) conjugated to the anti-SirT1 C-terminal antibody (monoclonal 1F3, Abcam catalog # ab104833) was used to determine SirT1 protein levels. […] The plates were read using an Envision plate reader.
Figure S3B. […] Compound treatment was done at 5 and 50 µM. SirT1 levels were measured by AlphaLISA followed and normalized to protein […]
Brain tissue was homogenized in PBS (pH 7.4) (1: 3 weight(mg)/volume(µL)) and the protein concentration of was determined using the Micro BCA™ Protein Assay Kit (Thermo Fisher Scientific, Cat#23235). […]
The % of the unbound drug (fu,bound) was calculated using the following equation: fu,bound = [normalized peak area in buffer side / normalized peak area in brain side] x 100 Liver Microsome Stability [t1/2 (min)] […]

[2] = test system: SirT1 mRNA; assay: Hippocampal SirT1 mRNA in ApoE4-TR:5xFAD mice; type: in vivo; settings: 20 mg/Kg BID, 56 days, vs vehicle
Protocol: The active (-) enantiomer, DDL-218, underwent efficacy testing in ApoE4-TR:5xFAD mice[27] that were 6-7.5 months old at the start of treatment. ApoE4-TR:5xFAD male and female mice received either 20 mg/Kg DDL-218 BID (~ 8- to10-hour interval; total daily dose of 40 mkd) on weekdays and a single 40 mg/Kg dose on weekends (n = 12) or vehicle-only (n = 11); 8 C57BL/6 mice received vehicle-only as behavioral controls. Dosing was by the oral route and by oral feeding using a pipette as previously described, not gavage, as it is safer for repeated oral dosing than gavage. The dose of 20 mg/kg BID (40 mkd) was selected based on findings from PK analysis and was the highest feasible in the formulation used for oral feeding (compound is first solubilized in water, then mixed strawberry syrup diluted in water, for a final vehicle that is 25% syrup and 75% water). […]
Total RNA was isolated from cells or brain tissue (Qiagen RNEasy kit). Total RNA (0.5–1.0 µg) mRNA was then converted to cDNA (SuperScript™ III First-Strand Synthesis SuperMix kit; Thermo Fisher), and gene mRNA levels were measured using a gene-specific qRT-PCR Taqman assays (Thermo Fisher). Gene mRNA levels were normalized to GAPDH mRNA levels measured either in the same cDNA sample or in the same qPCR reaction using multiplexing of gene-of-interest/VIC and GAPDH/FAM, normalized by the delta-delta-Ct method.

Structure (SMILES): C#Cc1ccc(CC(C)(C)NC(=O)[C@H](C)N)cc1 [DDL-220]
- SirT1 increase over vehicle ([1]; 50 uM in N2a-E4 cells): 30%

Structure (SMILES): CC(N)C(=O)OC(C)(C)Cc1ccncc1 (stereo not drawn) [DDL-218]
- hippocampal SirT1 mRNA [2]: significantly increased
- SirT1 protein levels ([1]; N2a-E4 cells, 5 µM, 24 h, vs DMSO control): greatest increase in SirT1 protein
